Results from patent US8486930B2, “Salts” (Novartis AG, priority 2008, dated 2013).
Counter-ions that a name gives are not always drawn.

What was measured:
Assay type in all cases: physicochemical
[1] = Hygroscopy by exposure to an atmosphere of 95% RH
Protocol: Crystalline forms A of the hydrochloride and tartrate salts of Compound I were prepared according to the methodology described in Examples 1 and 4.
The samples were tested for hygroscopy by exposure to an atmosphere of 95% RH.

[2] = Light stability, Xenon light approx. 1200 kLuxh; conditions: for Decomposition products (%): Bulk (HPLC); for Change in XRPD: Bulk (XRPD)
Protocol: (§1) Crystalline forms A of the hydrochloride and tartrate salts of Compound I were prepared according to the methodology described in Examples 1 and 4. Stability against temperature and light were then measured as described below.
Light stability was tested by measuring decomposition and colour change following exposure to the sample to 1200 kiloLuxhours from a Xenon light.

[3] = Temperature stability, solid state, 1 week 80° C., tight container; conditions: for resistance to decomposition at elevated temperatures: summary of Table 5
Protocol: as §1
(§2) Temperature stability was tested by measuring decomposition and colour change caused by placing the samples in an airtight container for 1 week at 80° C. (in bulk form and as a 1% component in two mixtures) and in an identical container for 1 week at 80° C. and at a relative humidity of 75%. Where a change in XRPD was observed, the temperature of the phase transition was measured using differential scanning […] (DSC).

[4] = Temperature stability, solid state, 1 week 80° C./75% relative humidity; conditions: for Decomposition products (%) / Discoloration / Change in XRPD: 1 week 80° C./75% relative humidity; for Change in XRPD: Bulk (XRPD)
Protocol: as §1, §2

[5] = 1 week 80° C., tight container, 1% in mixture of Lactose 200 mesh (78.5%), corn starch (20%), aerosil 200 (0.5%), magnesium stearate (1%)
[6] = 1 week 80° C., tight container, 1% in mixture of Mannitol 60 (50%), avicel PH 101 (43%), crospovidone (5%), aerosil (1%), magnesium stearate (1%)
[7] = Solid state, 1 week 80° C., tight container, Bulk (HPLC)
[8] = Solid state, 1 week 80° C., tight container, Bulk (XRPD, DSC)
[9] = 1% in mixture of Lactose 200 mesh (78.5%), corn starch (20%), aerosil 200 (0.5%), magnesium stearate (1%)
[10] = 1% in mixture of Mannitol 60 (50%), avicel PH 101 (43%), crospovidone (5%), aerosil (1%), magnesium stearate (1%)

hygroscopy [1] | moisture uptake [1] | Decomposition products (%) [2] | Change in XRPD [2] | Decomposition products (%) [3, 5] | Decomposition products (%) [3, 6] | Decomposition products (%) [3, 7] | Change in XRPD [3, 8] | Decomposition products (%) ([3]; Unstressed (1 week)) | resistance to decomposition at elevated temperatures [3] | Decomposition products (%) [4, 9] | Discoloration [4, 9] | Decomposition products (%) [4, 10] | Discoloration [4, 10] | Discoloration ([4]; Solid state, Bulk) | Decomposition products (%) ([4]; Solid state, Bulk (HPLC)) | Change in XRPD ([4]; Solid state) | also measured | Structure (SMILES)
low hygroscopy | 0.61% | 1.1% | No change | 94.8% | 92.7% | 11.5% | No change | 1.1% | good resistance to decomposition | 95.2% | Strong | 95.8% | Strong | Strong | 91.5% | Melted glass | Discoloration [3, 5]: Strong; Discoloration [3, 6]: Strong | CCc1cc(/C(C)=N/OCc2ccc(C3CCCCC3)c(C(F)(F)F)c2)ccc1CN1CC(C(=O)O)C1 [Form A of hydrochloride salt, 1-(4-{1-[(E)-4-Cyclohexyl-3-trifluoromethyl-benzyloxyimino]-ethyl}-2-ethyl-benzyl)-azetidine-3-carboxylic acid]
slightly hygroscopic | 2.49% | 0.8% | No change | 23.8% | 37.0% | 8.8% | Changed | 0.8% | good resistance to decomposition | 70.9% | Strong | 93.2% | Medium | Strong | 18.0% | Melted glass | temperature of the phase transition (DSC) ([3]; Solid state, 1 week 80° C., tight container, Bulk (XRPD, DSC), measured where XRPD changed): 136.3 °C; resistance to decomposition under conditions of high humidity and when mixed with representative pharmaceutical compositions ([4]; summary of Table 5, compared with the hydrochloride form): superior resistance to decomposition | CCc1cc(/C(C)=N/OCc2ccc(C3CCCCC3)c(C(F)(F)F)c2)ccc1CN1CC(C(=O)O)C1 [Form A of tartrate salt, 1-(4-{1-[(E)-4-Cyclohexyl-3-trifluoromethyl-benzyloxyimino]-ethyl}-2-ethyl-benzyl)-azetidine-3-carboxylic acid]
